Source: patent US11053204B2, “Pyrimidinyloxy benzene derivatives as herbicides” (FMC Corporation, priority 2015, dated 2021)

Columns and labels:
Format in all cases: in vivo
[1] = system: Italian ryegrass (Lolium multiflorum); assay: Test A preemergence, visual injury rating
Summary of the method: (§1)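 Scoring: eye-based comparison with untreated controls, 0 for no effect through 100 for complete control, at about day 10. Treatments: directed soil spray preemergence; foliar spray postemergence on 2–10 cm plants at the one- to two-leaf stage. Medium: loam soil with sand.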

[2] = system: barnyardgrass (Echinochloa crus-galli); assay: Test A preemergence, visual injury rating
Summary of the method: as §1

[3] = system: giant foxtail (Setaria faberii); assay: Test A preemergence, visual injury rating
Summary of the method: as §1

[4] = system: kochia (Kochia scoparia); assay: Test A preemergence, visual injury rating
Summary of the method: as §1

[5] = system: pigweed (Amaranthus retroflexus); assay: Test A preemergence, visual injury rating
Summary of the method: as §1

[6] = system: ragweed (common ragweed, Ambrosia elatior); assay: Test A preemergence, visual injury rating
Summary of the method: as §1

[7] = system: Italian ryegrass (Lolium multiflorum); assay: Test A postemergence, visual injury rating; details: 0 to 100 scale, 0 is no effect, 100 is complete control, approximately 10 days
Summary of the method: as §1

[8] = system: barnyardgrass (Echinochloa crus-galli); assay: Test A postemergence, visual injury rating; details: 0 to 100 scale, 0 is no effect, 100 is complete control, approximately 10 days
Summary of the method: as §1

[9] = system: blackgrass (Alopecurus myosuroides); assay: Test A postemergence, visual injury rating; details: 0 to 100 scale, 0 is no effect, 100 is complete control, approximately 10 days
Summary of the method: as §1

[10] = system: corn (Zea mays); assay: Test A postemergence, visual injury rating; details: 0 to 100 scale, 0 is no effect, 100 is complete control, approximately 10 days
Summary of the method: as §1

[11] = system: galium (catchweed bedstraw, Galium aparine); assay: Test A postemergence, visual injury rating; details: 0 to 100 scale, 0 is no effect, 100 is complete control, approximately 10 days
Summary of the method: as §1

[12] = system: giant foxtail (Setaria faberii); assay: Test A postemergence, visual injury rating; details: 0 to 100 scale, 0 is no effect, 100 is complete control, approximately 10 days
Summary of the method: as §1

[13] = system: kochia (Kochia scoparia); assay: Test A postemergence, visual injury rating; details: 0 to 100 scale, 0 is no effect, 100 is complete control, approximately 10 days
Summary of the method: as §1

[14] = system: pigweed (Amaranthus retroflexus); assay: Test A postemergence, visual injury rating; details: 0 to 100 scale, 0 is no effect, 100 is complete control, approximately 10 days
Summary of the method: as §1

[15] = system: ragweed (common ragweed, Ambrosia elatior); assay: Test A postemergence, visual injury rating; details: 0 to 100 scale, 0 is no effect, 100 is complete control, approximately 10 days
Summary of the method: as §1

[16] = system: wheat (Triticum aestivum); assay: Test A postemergence, visual injury rating; details: 0 to 100 scale, 0 is no effect, 100 is complete control, approximately 10 days
Summary of the method: as §1

[17] = system: barnyardgrass (Echinochloa crus-galli); assay: Test B flooded paddy test, plant response rating; details: 250 g ai/ha; Flood; scale of 0 to 100 where 0 is no effect and 100 is complete control; 13 to 15 days
Summary of the method: (§2)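 Under a constant 3 cm flood, test compounds went directly into the paddy water. Following 13 to 15 days of greenhouse growth, treated species and controls were compared by eye.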

[18] = system: ducksalad (Heteranthera limosa); assay: Test B flooded paddy test, plant response rating; details: 250 g ai/ha; Flood; scale of 0 to 100 where 0 is no effect and 100 is complete control; 13 to 15 days
Summary of the method: as §2

[19] = system: rice (Oryza sativa); assay: Test B flooded paddy test, plant response rating; details: 250 g ai/ha; Flood; scale of 0 to 100 where 0 is no effect and 100 is complete control; 13 to 15 days
Summary of the method: as §2

[20] = system: sedge, umbrella (small-flower umbrella sedge, Cyperus difformis); assay: Test B flooded paddy test, plant response rating; details: 250 g ai/ha; Flood; scale of 0 to 100 where 0 is no effect and 100 is complete control; 13 to 15 days
Summary of the method: as §2

[21] = 31 g ai/ha, 0 to 100 scale, 0 no effect, 100 complete control
[22] = 125 g ai/ha, 0 to 100 scale (0 no effect, 100 complete control)

SMILES	Plant response rating, Ryegrass, Italian [1, 21]	Plant response rating, Ryegrass, Italian [1, 22]	Plant response rating, Barnyardgrass [2, 21]	Plant response rating, Barnyardgrass [2, 22]	Plant response rating, Foxtail, Giant [3, 21]	Plant response rating, Foxtail, Giant [3, 22]	Plant response rating, Kochia [4, 21]	Plant response rating, Kochia [4, 22]	Plant response rating, Pigweed [5, 21]	Plant response rating, Pigweed [5, 22]	Plant response rating, Ragweed [6, 21]	Plant response rating, Ragweed [6, 22]	Ryegrass, Italian plant response rating ([7]; 31 g ai/ha)	Ryegrass, Italian plant response rating ([7]; 125 g ai/ha)	Barnyardgrass plant response rating ([8]; 31 g ai/ha)	Barnyardgrass plant response rating ([8]; 125 g ai/ha)	Blackgrass plant response rating ([9]; 31 g ai/ha)	Blackgrass plant response rating ([9]; 125 g ai/ha)	Corn plant response rating ([10]; 31 g ai/ha)	Corn plant response rating ([10]; 125 g ai/ha)	further results
FC(F)(F)CCCCCc1c(Br)cccc1Oc1ncc(Cl)cn1 [Compound 121]	10	0	0	30	30	100	20	0	0	0	0	0	10	20	20	40	20	30	10	10	Galium plant response rating ([11]; 31 g ai/ha): 70; Galium plant response rating ([11]; 125 g ai/ha): 80; Foxtail, Giant plant response rating ([12]; 31 g ai/ha): 10; Foxtail, Giant plant response rating ([12]; 125 g ai/ha): 70; Kochia plant response rating ([13]; 31 g ai/ha): 20; Kochia plant response rating ([13]; 125 g ai/ha): 80; Pigweed plant response rating ([14]; 31 g ai/ha): 80; Pigweed plant response rating ([14]; 125 g ai/ha): 100; Ragweed plant response rating ([15]; 31 g ai/ha): 20; Ragweed plant response rating ([15]; 125 g ai/ha): 50; Wheat plant response rating ([16]; 31 g ai/ha): 10; Wheat plant response rating ([16]; 125 g ai/ha): 10; Plant response rating, Barnyardgrass [17]: 50; Plant response rating, Ducksalad [18]: 0; Plant response rating, Rice [19]: 35; Plant response rating, Sedge, Umbrella [20]: 70
FC(F)(F)CCCc1c(Cl)cccc1Oc1ncc(Cl)cn1 [Compound 122]	0	30	30	90	0	40	10	70	40	90	0	0	0	20	10	50	20	60	10	20	Galium plant response rating ([11]; 31 g ai/ha): 30; Galium plant response rating ([11]; 125 g ai/ha): 60; Foxtail, Giant plant response rating ([12]; 31 g ai/ha): 10; Foxtail, Giant plant response rating ([12]; 125 g ai/ha): 40; Kochia plant response rating ([13]; 31 g ai/ha): 80; Kochia plant response rating ([13]; 125 g ai/ha): 80; Pigweed plant response rating ([14]; 31 g ai/ha): 70; Pigweed plant response rating ([14]; 125 g ai/ha): 100; Ragweed plant response rating ([15]; 31 g ai/ha): 0; Ragweed plant response rating ([15]; 125 g ai/ha): 10; Wheat plant response rating ([16]; 31 g ai/ha): 0; Wheat plant response rating ([16]; 125 g ai/ha): 0; Plant response rating, Barnyardgrass [17]: 80; Plant response rating, Ducksalad [18]: 100; Plant response rating, Rice [19]: 40; Plant response rating, Sedge, Umbrella [20]: 100
O=C(OCCC1CC1)c1c(Br)cccc1Oc1ncc(Cl)cn1 [Compound 123]	0	20	20	70	40	100	0	10	0	80	0	0	0	20	10	50	10	50	10	10	Galium plant response rating ([11]; 31 g ai/ha): 90; Galium plant response rating ([11]; 125 g ai/ha): 100; Foxtail, Giant plant response rating ([12]; 31 g ai/ha): 20; Foxtail, Giant plant response rating ([12]; 125 g ai/ha): 50; Kochia plant response rating ([13]; 31 g ai/ha): 50; Kochia plant response rating ([13]; 125 g ai/ha): 90; Pigweed plant response rating ([14]; 31 g ai/ha): 70; Pigweed plant response rating ([14]; 125 g ai/ha): 100; Ragweed plant response rating ([15]; 31 g ai/ha): 0; Ragweed plant response rating ([15]; 125 g ai/ha): 10; Wheat plant response rating ([16]; 31 g ai/ha): 0; Wheat plant response rating ([16]; 125 g ai/ha): 0; Plant response rating, Barnyardgrass [17]: 40; Plant response rating, Ducksalad [18]: 95; Plant response rating, Rice [19]: 35; Plant response rating, Sedge, Umbrella [20]: 95
FC(F)(F)CCCCCc1c(Cl)cccc1Oc1ncc(Cl)cn1 [Compound 124]	0	20	10	80	60	100	0	10	40	100	0	0	0	20	10	60	20	60	10	20	Galium plant response rating ([11]; 31 g ai/ha): 70; Galium plant response rating ([11]; 125 g ai/ha): 90; Foxtail, Giant plant response rating ([12]; 31 g ai/ha): 30; Foxtail, Giant plant response rating ([12]; 125 g ai/ha): 70; Kochia plant response rating ([13]; 31 g ai/ha): 50; Kochia plant response rating ([13]; 125 g ai/ha): 80; Pigweed plant response rating ([14]; 31 g ai/ha): 70; Pigweed plant response rating ([14]; 125 g ai/ha): 100; Ragweed plant response rating ([15]; 31 g ai/ha): 10; Ragweed plant response rating ([15]; 125 g ai/ha): 20; Wheat plant response rating ([16]; 31 g ai/ha): 10; Wheat plant response rating ([16]; 125 g ai/ha): 10; Plant response rating, Barnyardgrass [17]: 45; Plant response rating, Ducksalad [18]: 100; Plant response rating, Rice [19]: 40; Plant response rating, Sedge, Umbrella [20]: 100
CN(CCCC(F)(F)F)c1c(C#N)cccc1Oc1ncc(Cl)cn1 [Compound 126]	0	0	0	0	0	0	0	0	0	0	0	0	0	0	0	0	0	0	0	0	Galium plant response rating ([11]; 31 g ai/ha): 0; Galium plant response rating ([11]; 125 g ai/ha): 0; Foxtail, Giant plant response rating ([12]; 31 g ai/ha): 0; Foxtail, Giant plant response rating ([12]; 125 g ai/ha): 0; Kochia plant response rating ([13]; 31 g ai/ha): 0; Kochia plant response rating ([13]; 125 g ai/ha): 0; Pigweed plant response rating ([14]; 31 g ai/ha): 0; Pigweed plant response rating ([14]; 125 g ai/ha): 10; Ragweed plant response rating ([15]; 31 g ai/ha): 0; Ragweed plant response rating ([15]; 125 g ai/ha): 0; Wheat plant response rating ([16]; 31 g ai/ha): 0; Wheat plant response rating ([16]; 125 g ai/ha): 0; Plant response rating, Barnyardgrass [17]: 90; Plant response rating, Ducksalad [18]: 0; Plant response rating, Rice [19]: 0; Plant response rating, Sedge, Umbrella [20]: 0
